Where “and” joins values, the source holds several entries; their conditions need not be identical. Identical values can stand only once.
What was measured:
mouse mNtcp = target: T1, mouse mNtcp (Mus musculus, UniProt O08705); test: Quantitative uptake of 3-NBD-BA in carrier-expressing HEK293 cells (fluorescence reader); type: cell-based; details: mNtcp-HEK293, 25 μM, 37 °C, +Na+ vs -Na+
T1 construct: stably transfected with the full open reading frames of human NTCP, ASBT, SOAT, OATP1B1, and OATP1B3 as well as mouse mNtcp and mAsbt; expressed in transfected cells
T1 sequence (O08705 1-362): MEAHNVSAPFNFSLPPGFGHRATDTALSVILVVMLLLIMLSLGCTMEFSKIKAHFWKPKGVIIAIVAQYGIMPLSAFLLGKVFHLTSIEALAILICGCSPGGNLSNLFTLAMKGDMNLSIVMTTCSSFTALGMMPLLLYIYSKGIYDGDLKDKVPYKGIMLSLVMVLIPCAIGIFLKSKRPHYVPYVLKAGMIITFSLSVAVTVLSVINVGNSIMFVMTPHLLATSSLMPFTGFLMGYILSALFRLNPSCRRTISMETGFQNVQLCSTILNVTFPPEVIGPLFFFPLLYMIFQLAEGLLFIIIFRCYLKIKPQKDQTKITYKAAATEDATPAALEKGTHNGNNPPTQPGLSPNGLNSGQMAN
Experimental: For quantification of the transport activity of the synthesized NBD-BA, all cell lines were seeded on 96 well plates and transport experiments were performed under the same control conditions (-Na^+ control for the SLC10 carriers and nontransfected HEK293 cells for the OATP carriers) as before (Figure ). For each NBD-BA, a substrate concentration of 25 μM was used, and the uptake phase was terminated after 10 min of incubation at 37 °C. […] The transport ratios ranged from 3-fold to 39-fold. In direct comparison, 3α-NBD-TCA (14d) and 3α-NBD-GCA (16d) were transported better than their 3β-analogs 3β-NBD-TCA (14a) and 3β-NBD-GCA (16a), respectively, clearly pointing to a preference for the α-position over the β-position of the 3-NBD-label. In direct comparison between the taurine- or glycine-conjugation of the respective NBD-BA, there was a clear preference for 3α-NBD-GCA (16d) over 3α-NBD-TCA (14d), at least for NTCP and mAsbt, pointing to a favorable substrate recognition for glycine-conjugated NBD-BA.
5 Quantitative uptake experiments with the 3-NBD-BA in HEK293 cells stably expressing the human carriers NTCP, ASBT, SOAT, OATP1B1, and OATP1B3, or the mouse carriers mNtcp and mAsbt. For the SLC10 carriers, all transport experiments were performed in the presence (filled bars) and the absence (hatched bars) of sodium. For the OATP carriers, uptake into carrier-expressing cells (filled bars) was compared to uptake into non-carrier-expressing HEK293 cells (hatched bars). All cell lines were incubated at 37 °C for 10 min with the indicated 3-NBD-BA at 25 μM. Then, cells were washed with PBS and subjected to fluorescence detection. The following fluorescent BA were analyzed: 3α-NBD-TCA (14d), 3β-NBD-TCA (14a), 3α-NBD-GCA (16d), 3β-NBD-GCA (16a), 3β-NBD-TCDCA (14b), 3β-NBD-CDCA (6b), 3β-NBD-DCA (6c), 3α-NBD-CA (6d), and 3β-NBD-CA (6a). Data represent means ± SD of triplicate determinations of representative experiments. […] RFU, relative fluorescence units. TEXT PRINTED IN THE PICTURE: 3α-NBD-TCA (14d): NTCP: 9 X; mNtcp: 30 X; ASBT: 2 X; mAsbt: 14 X | 3ß-NBD-TCA (14a): NTCP: 12 X; mNtcp: 20 X; mAsbt: 18 X | 3α-NBD-GCA (16d): NTCP: 27 X; mNtcp: 26 X; ASBT: 3 X; mAsbt: 39 X | 3ß-NBD-GCA (16a): NTCP: 15 X; mNtcp: 14 X; mAsbt: 5 X | 3ß-NBD-TCDCA (14b): NTCP: 5 X; mNtcp: 3 X; mAsbt: 4 X | 3ß-NBD-CDCA (6b): mNtcp: < 2 X; ASBT: < 2 X; mAsbt: < 2 X; OATP1B1: < 2 X; OATP1B3: < 2 X | 3ß-NBD-DCA (6c): mNtcp: < 2 X; ASBT: < 2 X; mAsbt: < 2 X | 3α-NBD-CA (6d): mNtcp: 2 X; mAsbt: 4 X | 3ß-NBD-CA (6a): NTCP: 2 X; mNtcp: 2 X; mAsbt: 2 X DOUBTS OF THE COPYIST ABOUT THIS PICTURE: The picture prints no panel letters, so the chart titles (NTCP, mNtcp, ASBT, mAsbt, OATP1B1, OATP1B3) are written in front of the values as the target. / Substance labels: the sign after '3' is printed like 'ß' and may be meant as 'β'. / The 'ns' marks and significance asterisks were left out as statistics. The SOAT chart prints only 'ns'.

[1] = Excitation-emission spectra of the 3-NBD-BA; type: physicochemical; details: NaCl-transport buffer, 1 pM compound concentration
Experimental: After the synthesis of this set of unconjugated as well as T- and G-conjugated 3β- and 3α-NBD-BA derivatives, namely 3β-NBD-CA (6a), 3β-NBD-CDCA (6b), 3β-NBD-DCA (6c), 3α-NBD-CA (6d), 3β-NBD-TCA (14a), 3β-NBD-TCDCA (14b), 3α-NBD-TCA (14d), 3β-NBD-GCA (16a), and 3α-NBD-GCA (16d) comprehensive transport studies were conducted with all fluorescent BA listed in Figure . Prior to the transport studies, the excitation and emission spectra of all fluorescent BA derivatives were determined to obtain the optimal emission and excitation wavelengths for subsequent fluorescent measurements at the fluorescence microscope and the fluorescent reader (Figure ). The excitation maxima (ExPeak) were at 468–470 nm and the emission maxima (EmPeak) at 538–540 nm for all fluorescent NBD-BA.
2 Excitation–emission-spectra of the 3-NBD-BA measured in NaCl-transport buffer at 1 pM compound concentration. The excitation (dotted line, ExPeak) and emission (solid line, EmPeak) peak wavelengths (in nm) are indicated for each compound. RFU, relative fluorescence units. […]

Row | Compound | Specific transport ratio mNtcp (25µM/10 min uptake) (mouse mNtcp) | Emission peak wavelength (EmPeak) [1] | Excitation peak wavelength (ExPeak) [1]
1 | 7α-Hydroxy-3β-[(7-nitro-2,1,3-benzoxadiazol-4-yl)amino]-5β-cholan-24-oate [6b] | <2x x-fold | 538 nm | 468 nm
2 | 12α-Hydroxy-3β-[(7-nitro-2,1,3-benzoxadiazol-4-yl)amino]-5β-cholan-24-oate [6c] | <2x x-fold | 538 nm | 468 nm
3 | C[C@H](CCC(=O)O)[C@H]1CC[C@H]2[C@@H]3[C@H](O)C[C@@H]4C[C@@H](Nc5ccc([N+](=O)[O-])c6nonc56)CC[C@]4(C)[C@H]3C[C@H](O)[C@]12C [6a, 7α,12α-Dihydroxy-3β-[(7-nitro-2,1,3-benzoxadiazol-4-yl)amino]-5β-cholan-24-oate] | 2 x-fold and 2x x-fold | 538 nm | 468 nm
4 | C[C@H](CCC(=O)O)[C@H]1CC[C@H]2[C@@H]3[C@H](O)C[C@@H]4C[C@H](Nc5ccc([N+](=O)[O-])c6nonc56)CC[C@]4(C)[C@H]3C[C@H](O)[C@]12C [6d, 7α,12α-Dihydroxy-3α-[(7-nitro-2,1,3-benzoxadiazol-4-yl)amino]-5β-cholan-24-oate] | 2 x-fold and 2x x-fold | 538 nm | 468 nm
5 | C[C@H](CCC(=O)NCCS(=O)(=O)[O-])[C@H]1CC[C@H]2[C@@H]3[C@H](O)C[C@@H]4C[C@@H](Nc5ccc([N+](=O)[O-])c6nonc56)CC[C@]4(C)[C@H]3C[C@H](O)[C@]12C.[Na+] [14a] | 20x x-fold | 538 nm | 468 nm
6 | C[C@H](CCC(=O)NCCS(=O)(=O)[O-])[C@H]1CC[C@H]2[C@@H]3[C@H](O)C[C@@H]4C[C@H](Nc5ccc([N+](=O)[O-])c6nonc56)CC[C@]4(C)[C@H]3C[C@H](O)[C@]12C.[Na+] [14d] | 30x x-fold | 538 nm | 468 nm
7 | C[C@H](CCC(=O)NCC(=O)O)[C@H]1CC[C@H]2[C@@H]3[C@H](O)C[C@@H]4C[C@@H](Nc5ccc([N+](=O)[O-])c6nonc56)CC[C@]4(C)[C@H]3C[C@H](O)[C@]12C [16a] | 14x x-fold | 538 nm | 468 nm
8 | C[C@H](CCC(=O)NCC(=O)O)[C@H]1CC[C@H]2[C@@H]3[C@H](O)C[C@@H]4C[C@H](Nc5ccc([N+](=O)[O-])c6nonc56)CC[C@]4(C)[C@H]3C[C@H](O)[C@]12C [16d] | 26x x-fold | 538 nm | 468 nm

Reference: PMC12169615, “Fluorescent 4‑Nitrobenzo-2-oxa-1,3-diazole-Coupled Bile Acids as Probe Substrates of Hepatic and Intestinal Bile Acid Transporters of the Solute Carrier Families SLC10 and SLCO” (Journal of Medicinal Chemistry, 2025)
